Experimental data from US12016906B2, “Pharmaceutical composition for anaemia” (Frimline Private Limited, priority 2018, dated 2024).

Columns and labels:
Type in all cases: in vivo, male Wistar rats (Rat Rattus)
[1] = system: Iron deficient Diet (IDD) induced anaemia in rats; test: IL-6 level in IDD induced anaemia in rats; settings: for IL-6 Post-treatment: Day 98, after 9 weeks of treatment p.o.; for IL-6 Post-treatment / IL-6 % Change compared to Disease control: IDD rats; for IL-6 % Change compared to Disease control: Day 98
Description: (§1) Screening of pharmaceutical composition/formulation comprising combination of Lactoferrin+Guanosine Nucleotide or a pharmaceutically acceptable salt thereof with or without optional ingredients against Iron deficient Diet (IDD) induced anaemia in rats. For this study different parameters like Hb Level, Hematocrit level, Serum Iron level, Ferroportin level, Serum Ferritin level, Hepcidin level and IL-6 Level were evaluated. The following trials were carried out by taking reference from Wang Xl, Liu S, Xu H, Yan W, Effects of recombinant human lactoferrin on improving the iron status of IDA. Wei Sheng Yan Jiu.
(§2) 72 male Wistar rats (Rat Rattus) (6 per group) were maintained in animal house in a light/dark atmosphere based on a 12 hour cycle having temperature and relative humidity in the range of 22±3° C. and 30-70% respectively. To maintain the appropriate conditions, temperature and relative humidity were recorded three times daily. All animals were acclimatized for a minimum period of five days. Animals were maintained in the test setup for minimum 30 minutes once during the acclimatization period to reduce the stress. Animals were weighed on the day of receipt and observed daily for abnormalities if any. Detailed records of acclimatization were also maintained. Rats were housed 6 per cage in clean, sterilized Polypropylene cages. During complete experiment, animals were supplied with the standard certified rat pellet feed (manufactured by Keval sales corporation, Vadodara) and drinking water treated by the reverse osmosis ad libitum. Analysis reports for microbial load and contaminants in feed and water and nutrient content of feed were also retained.
(§3) In order to evaluate the activity against IDD induced anaemia, seventy two (72) rats were screened and divided in to twelve groups. For a comparative analysis, groups were divided as normal control (Group 1), disease control (Group 2), treatment groups with individual components (Group 3, Group 4, Group 5, Group 6 and Group 7 as Lactoferrin, Disodium Guanosine monophosphate (GMP), Guanosine diphosphate (GDP), Guanosine triphosphate (GTP) and Vitamin C respectively), test composition/formulation of the present invention (Group 8 as combination of Lactoferrin Disodium GMP, Group 9 as combination of Lactoferrin GDP, Group 10 as combination of Lactoferrin+GTP, […] as combination of Lactoferrin+Disodium GMP+Vitamin C) and reference standard drug (Group 12). Table 1 provides the details of the various groups and treatments conducted in the trial wherein group no. G3 to G12 are treatment groups.
(§4) After 5 weeks (35 days) of respective dietary intervention, once again hemoglobin level, HCT % level and serum iron level were analyzed and then, respective drug treatment was started with continuous administration of Iron deficient diets in all groups as mentioned above in Table 1.
(§5) After 9 weeks of respective drug treatment (total after 14 weeks from start of the study—98 days), various biochemical parameters were measured to evaluate the effect of respective individual and combination therapy on iron deficient anaemia model (G3 to G12).
• A. Clinical observations (Daily) • B. Mortality (Daily) • C. Body weight (Initially and then weekly till the end of study) • D. After 3 and 5 weeks of Iron deficient diet supplement • (i) Hematological parameters (RBC count, Hb Level, Hematocrit % MCV, MCH and MCHC). • (ii) Serum Iron Level. • E. At the end of 14 weeks of study • (i) Hematological parameters (RBC count, Hb Level, Hematocrit %, MCV, MCH and MCHC). • (ii) Biochemical parameters (Serum Iron level, Ferroportin level, Serum Ferritin level, Hepcidin level, IL-6 level). Statistical Analysis: One way ANOVA followed by Tuckey's test was performed and p value<0.05 is considered to be statistically significant. […] Hematology: (after 3 Weeks and 5 Weeks of Feed Intervention and after 9 Weeks of Treatment)

[2] = system: Iron deficient Diet (IDD) induced anaemia in rats; test: Ferroportin level in IDD induced anaemia in rats; design: Ferroportin % Change compared to Disease control: concentration or dose not given beside the values; settings: for Ferroportin Post-treatment: Day 98, after 9 weeks of treatment p.o.; for Ferroportin Post-treatment / Ferroportin % Change compared to Disease control: IDD rats; for Ferroportin % Change compared to Disease control: Day 98
Description: as §1, with “Jiu. 2012 January; 41(1):13-7, 22 and Nora M. El-Sheikh, the Protective Effect of Soybean and Thyme on Iron Deficiency Anemia in Rats, the Egyptian Journal of Hospital Medicine (2008) Vol., 33: 510-520 as available.” for “Jiu.”
as §2, §3
(§6) Group nos. 2 to 12 animals under consideration were administered IDD (3 mg Fe/Kg of diet) for the period of 3 weeks, while group 1 animal received Normal pellet diet (35 mg Fe/Kg of diet).
as §4, §5
(§7) • A. Clinical observations (Daily) • B. Mortality (Daily) • C. […]

[3] = system: Iron deficient Diet (IDD) induced anaemia in rats; test: Serum ferritin level in IDD induced anaemia in rats; design: Ferritin % Change compared to Disease control: concentration or dose not given beside the values; settings: for Ferritin Post-treatment: Day 98, after 9 weeks of treatment p.o.; for Ferritin Post-treatment / Ferritin % Change compared to Disease control: IDD rats; for Ferritin % Change compared to Disease control: Day 98
Description: as §1, with “Jiu. 2012 January; 41(1):13-7, 22 and Nora M. El-Sheikh, the Protective Effect of Soybean and Thyme on Iron Deficiency Anemia in Rats, the Egyptian Journal of Hospital Medicine (2008) Vol., 33: 510-520 as available.” for “Jiu.”
as §2, §3, §6, §4, §5, §7

[4] = system: Iron deficient Diet (IDD) induced anaemia in rats; test: Hepcidin level in IDD induced anaemia in rats; design: Hepcidin % Change compared to Disease control: concentration or dose not given beside the values; settings: for Hepcidin Post-treatment: Day 98, after 9 weeks of treatment p.o.; for Hepcidin Post-treatment / Hepcidin % Change compared to Disease control: IDD rats; for Hepcidin % Change compared to Disease control: Day 98
Description: as §1, with “Jiu. 2012 January; 41(1):13-7, 22 and Nora M. El-Sheikh, the Protective Effect of Soybean and Thyme on Iron Deficiency Anemia in Rats, the Egyptian Journal of Hospital Medicine (2008) Vol., 33: 510-520 as available.” for “Jiu.”
as §2, §3, §6, §4, §5, §7

[5] = system: Iron deficient Diet (IDD) induced anaemia in rats; test: Hb level in IDD induced anaemia in rats; design: Hemoglobin % Change compared to Disease control: concentration or dose not given beside the values; settings: for Hemoglobin Pre-treatment: Day 35, before treatment; for Hemoglobin Pre-treatment / Hemoglobin Post-treatment / Hemoglobin % Change compared to Disease control: IDD rats; for Hemoglobin Post-treatment: Day 98, after 9 weeks of treatment p.o.; for Hemoglobin % Change compared to Disease control: Day 98
Description: as §1, §2, §3
After 3 weeks of respective dietary intervention, the level of Hemoglobin was determined in each animal.
as §4, §5
• A. Clinical observations (Daily) • B. Mortality (Daily) • C. Body weight (Initially and then weekly till the end of study) • D. After 3 and 5 weeks of Iron deficient diet supplement • (i) Hematological parameters (RBC count, Hb Level, Hematocrit % MCV, MCH and MCHC). • (ii) Serum Iron Level. • E. At the end of 14 weeks of study • (i) Hematological parameters (RBC count, Hb Level, Hematocrit %, MCV, MCH and MCHC). • (ii) Biochemical parameters (Serum Iron level, Ferroportin level, Serum Ferritin level, Hepcidin level, IL-6 level).

[6] = system: Iron deficient Diet (IDD) induced anaemia in rats; test: Serum iron level in IDD induced anaemia in rats; design: Serum IRON % Change compared to Disease control: concentration or dose not given beside the values; settings: for Serum IRON Pre-treatment: Day 35, before treatment; for Serum IRON Pre-treatment / Serum IRON Post-treatment / Serum IRON % Change compared to Disease control: IDD rats; for Serum IRON Post-treatment: Day 98, after 9 weeks of treatment p.o.; for Serum IRON % Change compared to Disease control: Day 98
Description: as §1, with “Jiu. 2012 January; 41(1):13-7, 22 and Nora M. El-Sheikh, the Protective Effect of Soybean and Thyme on Iron Deficiency Anemia in Rats, the Egyptian Journal of Hospital Medicine (2008) Vol., 33: 510-520 as available.” for “Jiu.”
as §2, §3, §6
(§8) After 3 weeks of respective dietary intervention, the level of Hemoglobin was determined in each animal. Looking at low increase in hemoglobin. Hematocrit % (HCT %) level and serum iron level, further dietary intervention was continued for additional two (2) weeks.
as §4, §5, §7

[7] = system: Iron deficient Diet (IDD) induced anaemia in rats; test: Hematocrit % level in IDD induced anaemia in rats; design: Hematocrit % Change compared to Disease control: concentration or dose not given beside the values; settings: for Hematocrit Pre-treatment: Day 35, before treatment; for Hematocrit Pre-treatment / Hematocrit Post-treatment / Hematocrit % Change compared to Disease control: IDD rats; for Hematocrit Post-treatment: Day 98, after 9 weeks of treatment p.o.; for Hematocrit % Change compared to Disease control: Day 98
Description: as §1, with “Jiu. 2012 January; 41(1):13-7, 22 and Nora M. El-Sheikh, the Protective Effect of Soybean and Thyme on Iron Deficiency Anemia in Rats, the Egyptian Journal of Hospital Medicine (2008) Vol., 33: 510-520 as available.” for “Jiu.”
as §2, §3, §6, §8, §4, §5, §7

[8] = rats on iron deficient diet, after treatment of 9 weeks, compared to disease control group (G2)
[9] = rats on iron deficient diet, after treatment for 9 weeks, compared to disease control group (G2)

Compound | IL-6 Post-treatment [1] [pg/mL] | IL-6 % Change compared to Disease control [1] [%] | Ferroportin Post-treatment [2] [ng/mL] | Ferroportin % Change compared to Disease control [2] [%] | Ferritin Post-treatment [3] [ng/mL] | Ferritin % Change compared to Disease control [3] [%] | Hepcidin Post-treatment [4] [ng/mL] | Hepcidin % Change compared to Disease control [4] [%] | Hemoglobin Pre-treatment [5] [g/dL] | Hemoglobin Post-treatment [5] [g/dL] | Hemoglobin % Change compared to Disease control [5] [%] | Serum IRON Pre-treatment [6] [ppm] | Serum IRON Post-treatment [6] [ppm] | Serum IRON % Change compared to Disease control [6] [%] | Hematocrit Pre-treatment [7] [%] | Hematocrit Post-treatment [7] [%] | Hematocrit % Change compared to Disease control [7] [%] | further results
Nc1nc2c(ncn2[C@@H]2O[C@H](COP(=O)([O-])[O-])[C@@H](O)[C@H]2O)c(=O)[nH]1.[Na+].[Na+] [Disodium GMP, Disodium Guanosine 5-Monophosphate] | 62.9 | 0.9 | 3.0 | 11.4 | 700 | −5.4 | 4303 | −2.2 | – | – | – | – | – | – | – | – | – | –
Nc1nc2c(ncn2[C@@H]2O[C@H](COP(=O)([O-])[O-])[C@@H](O)[C@H]2O)c(=O)[nH]1.[Na+].[Na+] [Disodiurn GMP] | – | – | – | – | – | – | – | – | 8.54 | 9.18 | 40.8 | 2.82 | 3.43 | 28.8 | 35.35 | 38.89 | 51.3 | –
O=S(=O)([O-])[O-].[Fe+2] [FeSO4, ferrous sulphate, reference compound] | 60.4 | −3.2 | 3.0 | 12.5 | 720 | −2.7 | 4260 | −3.2 | 8.71 | 15.2 | 134.0 | 2.43 | 9.84 | 269.2 | 35.10 | 47.22 | 83.7 | IL-6 level [1, 8]: no significant change; Hb level [5, 9]: significant increment; Ferroportin level [2, 8]: no significant change; Serum Ferritin level [3, 8]: no significant change; Serum Iron level [6, 9]: significant increase; % Hematocrit level [7, 9]: significant increment; Hepcidin level [4, 8]: no significant change
Nc1nc2c(ncn2[C@@H]2O[C@H](COP(=O)(O)OP(=O)(O)O)[C@@H](O)[C@H]2O)c(=O)[nH]1 [GDP, Guanosine diphosphate] | 62.2 | −0.3 | 3.0 | 11.1 | 702 | −5.1 | 4351 | −1.1 | 8.62 | 9.34 | 43.4 | 3.30 | 3.99 | 49.7 | 35.61 | 37.77 | 46.9 | –
Nc1nc2c(ncn2[C@@H]2O[C@H](COP(=O)(O)OP(=O)(O)OP(=O)(O)O)[C@@H](O)[C@H]2O)c(=O)[nH]1 [GTP, Guanosine triphosphate] | 62.2 | −0.2 | 3.0 | 9.5 | 698 | −5.7 | 4392 | −0.2 | 8.45 | 9.12 | 39.9 | 3.03 | 3.98 | 49.2 | 35.74 | 37.96 | 11.7 | –
Vit C | 63.4 | 1.6 | 3.1 | 12.9 | 689 | −6.9 | 4267 | −3.0 | 8.28 | 9.22 | 41.5 | 2.76 | 3.54 | 32.7 | 35.64 | 37.24 | 44.9 | –
